Experiments:
Conditions in all cases: LAPC4, 24 h
[1] = test system: LAPC4; assay: Inhibition of 3-alpha-diol conversion to 5-alpha-dihydrotestosterone in human LAPC4 cells assessed in 200000 cells at 3 uM measured after 24 hrs using [14C]-3-alpha-diol/[14C]-3-beta-diol (9:1) as non-radiolabeled/radiolabeled 20:1 mixture by TLC analysis relative to control; format: functional
[2] = test system: LAPC4; assay: Inhibition of 3-alpha-diol conversion to 5-alpha-dihydrotestosterone in human LAPC4 cells assessed in 200000 cells at 10 uM measured after 24 hrs using [14C]-3-alpha-diol/[14C]-3-beta-diol (9:1) as non-radiolabeled/radiolabeled 20:1 mixture by TLC analysis relative to control; format: functional
[3] = test system: LAPC4; assay: Inhibition of 3-alpha-diol conversion to 5-alpha-dihydrotestosterone in human LAPC4 cells assessed in 100000 cells at 10 uM measured after 24 hrs using [14C]-3-alpha-diol/[14C]-3-beta-diol (9:1) as non-radiolabeled/radiolabeled 20:1 mixture by TLC analysis relative to control; format: functional
[4] = test system: LAPC4; assay: Inhibition of 3-alpha-diol conversion to 5-alpha-dihydrotestosterone in human LAPC4 cells assessed in 100000 cells at 3 uM measured after 24 hrs using [14C]-3-alpha-diol/[14C]-3-beta-diol (9:1) as non-radiolabeled/radiolabeled 20:1 mixture by TLC analysis relative to control; format: functional
[5] = test system: LAPC4; assay: Inhibition of 3-alpha-diol conversion to 5-alpha-dihydrotestosterone in human LAPC4 cells assessed in 200000 cells measured after 24 hrs using [14C]-3-alpha-diol/[14C]-3-beta-diol (9:1) as non-radiolabeled/radiolabeled 20:1 mixture by TLC analysis; format: functional, cell-based

SMILES | inhibition at 3 µM [1] [%] | inhibition at 10 µM [2] [%] | inhibition at 10 µM [3] [%] | inhibition at 3 µM [4] [%] | IC50 [5] [µM]
C[C@]12CC[C@@H](O)C[C@@H]1CC[C@@H]1[C@@H]2CC[C@]2(C)C(=O)CC[C@@H]12 [ANDROSTERONE] | 85.7 | 83.8 | – | – | –
COc1cccc(CN2CCN(C[C@@]3(O)CC[C@@]4(C)[C@@H](CC[C@@H]5[C@@H]4CC[C@]4(C)[C@H](O)CC[C@@H]54)C3)CC2)c1 | – | – | 27.6 | 9.5 | –
CCN(C)S(=O)(=O)N1CCN(C[C@@]2(O)CC[C@@]3(C)[C@@H](CC[C@@H]4[C@@H]3CC[C@]3(C)C(=O)CC[C@@H]43)C2)CC1 | – | – | 3.3 | 0 | –
C[C@]12CC[C@](O)(CN3CCN(C(=S)NCc4cccc(C(F)(F)F)c4)CC3)C[C@@H]1CC[C@@H]1[C@@H]2CC[C@]2(C)C(=O)CC[C@@H]12 | 47.7 | 57.7 | 49.7 | 27 | 3.6
COc1cc(C)ccc1CN1CCN(C[C@@]2(O)CC[C@@]3(C)[C@@H](CC[C@@H]4[C@@H]3CC[C@]3(C)C(=O)CC[C@@H]43)C2)CC1 | – | – | 51.2 | 12.2 | –
COc1cc(CN2CCN(C[C@@]3(O)CC[C@@]4(C)[C@@H](CC[C@@H]5[C@@H]4CC[C@]4(C)C(=O)CC[C@@H]54)C3)CC2)ccc1C(F)(F)F | – | – | – | – | 8
C#C[C@]1(O)CC[C@H]2[C@@H]3CC[C@H]4C[C@@](O)(CN5CCN(Cc6cccc(OC)c6)CC5)CC[C@]4(C)[C@H]3CC[C@@]21C | – | – | 44.2 | 35.4 | –
C[C@]12CCC(O)C[C@@H]1CC[C@@H]1[C@@H]2CC[C@]2(C)[C@@H](O)CC[C@@H]12 (stereo not given in full) | 73.6 | 87 | 79.3 | 46.9 | 0.56
COc1cccc(CN2CCN(C[C@@]3(O)CC[C@@]4(C)[C@@H](CC[C@@H]5[C@@H]4CC[C@]4(C)[C@@H](O)CC[C@@H]54)C3)CC2)c1 | – | – | 28.3 | 21.2 | –
CN(C)S(=O)(=O)c1ccc(NC(=S)N2CCN(C[C@@]3(O)CC[C@@]4(C)[C@@H](CC[C@@H]5[C@@H]4CC[C@]4(C)C(=O)CC[C@@H]54)C3)CC2)cc1 | – | – | 31.7 | 14.3 | –
C[C@]12CC[C@](O)(CN3CCN(C(=O)c4ccc5ccccc5c4)CC3)C[C@@H]1CC[C@@H]1[C@@H]2CC[C@]2(C)C(=O)CC[C@@H]12 | 43.6 | 65.3 | – | – | 6.1
C#C[C@]1(O)CC[C@H]2[C@@H]3CC[C@H]4C[C@@](O)(CN5CCN(Cc6ccc(C(F)(F)F)c(OC)c6)CC5)CC[C@]4(C)[C@H]3CC[C@@]21C | 74 | 88.8 | – | – | 1.2
COc1cc(N2CCN(C[C@@]3(O)CC[C@@]4(C)[C@@H](CC[C@@H]5[C@@H]4CC[C@]4(C)C(=O)CC[C@@H]54)C3)CC2)ccc1C(F)(F)F | 37.4 | 63.2 | 55.6 | 33.7 | –
COc1cc(N2CCN(C[C@@]3(O)CC[C@@]4(C)[C@@H](CC[C@@H]5[C@@H]4CC[C@]4(C)C(=O)CC[C@@H]54)C3)CC2)ccc1F | 21.4 | 37.2 | – | – | –
COc1ccc(C(F)(F)F)c(N2CCN(C[C@@]3(O)CC[C@@]4(C)[C@@H](CC[C@@H]5[C@@H]4CC[C@]4(C)C(=O)CC[C@@H]54)C3)CC2)c1 | 27.6 | 48 | – | – | –
COc1cccc(CN2CCN(C[C@@]3(O)CC[C@@]4(C)[C@@H](CC[C@@H]5[C@@H]4CC[C@]4(C)C(=O)C(C)(C)C[C@@H]54)C3)CC2)c1 | – | – | 21.5 | 11.8 | –
COc1cccc(CN2CCN(C[C@@]3(O)CC[C@@]4(C)[C@@H](CC[C@@H]5[C@@H]4CC[C@]4(C)C(=O)CC[C@@H]54)C3)CC2)c1 | – | – | 42.5 | 21.5 | –
COc1cccc(CN2CCN(C[C@@]3(O)CC[C@@]4(C)[C@@H](CC[C@@H]5[C@@H]4CC[C@@]4(C)[C@H]5CCC4(F)F)C3)CC2)c1 | – | – | 49.7 | 33.7 | –
COc1cccc(CN2CCN(C[C@@]3(O)CC[C@@]4(C)[C@@H](CC[C@@H]5[C@@H]4CC[C@@]4(C)[C@H]5CC[C@]4(C)O)C3)CC2)c1 | – | – | 36.5 | 17.8 | –
CC(=O)c1cccc(CN2CCN(C[C@@]3(O)CC[C@@]4(C)[C@@H](CC[C@@H]5[C@@H]4CC[C@]4(C)C(=O)CC[C@@H]54)C3)CC2)c1 | – | – | 15.5 | 3.7 | –
C[C@]12CC[C@](O)(CN3CCN(C(=S)Nc4ccc5ccccc5c4)CC3)C[C@@H]1CC[C@@H]1[C@@H]2CC[C@]2(C)C(=O)CC[C@@H]12 | 41.1 | 42.1 | – | – | –
C[C@]12CC[C@](O)(CN3CCN(S(=O)(=O)c4ccc5ccccc5c4)CC3)C[C@@H]1CC[C@@H]1[C@@H]2CC[C@]2(C)C(=O)CC[C@@H]12 | 0.1 | 19.1 | – | – | –
COc1cc(CN2CCN(C[C@@]3(O)CC[C@@]4(C)[C@@H](CC[C@@H]5[C@@H]4CC[C@]4(C)C(=O)CC[C@@H]54)C3)CC2)cc(C(F)(F)F)c1 | 46.8 | 62.9 | – | – | 3.7
C[C@]12CC[C@](O)(CN3CCN(Cc4ccc5ccccc5n4)CC3)C[C@@H]1CC[C@@H]1[C@@H]2CC[C@]2(C)C(=O)CC[C@@H]12 | – | – | 27.4 | 8.4 | –
COc1cc(CN2CCN(C[C@@]3(O)CC[C@@]4(C)[C@@H](CC[C@@H]5[C@@H]4CC[C@]4(C)C(=O)CC[C@@H]54)C3)CC2)ccc1C | – | – | 49 | 22.3 | –
C[C@]12CC[C@](O)(CN3CCN(Cc4ccc5ccccc5c4)CC3)C[C@@H]1CC[C@@H]1[C@@H]2CC[C@]2(C)C(=O)CC[C@@H]12 | 30.1 | 51.4 | – | – | –
C#C[C@]1(O)CC[C@H]2[C@@H]3CC[C@H]4C[C@@](O)(CN5CCN(Cc6cccc(OC)c6C(F)(F)F)CC5)CC[C@]4(C)[C@H]3CC[C@@]21C | 44.3 | 56.2 | – | – | 14.1
